Test results as given in ChEMBL document CHEMBL4425136, “4-Oxo-1,4-dihydroquinoline-3-carboxamide Derivatives as New Axl Kinase Inhibitors” (J Med Chem, 2016).
Blank lines part the entries; values can stand above or below the compound they belong to.

Legend:
[1] = target: T1, Tyrosine-protein kinase receptor UFO (Homo sapiens, UniProt P30530); assay: Inhibition of human recombinant AXL incubated for 1 to 1.5 hrs by FRET based Z'-Lyte kinase assay
T1 sequence (P30530 whole entry): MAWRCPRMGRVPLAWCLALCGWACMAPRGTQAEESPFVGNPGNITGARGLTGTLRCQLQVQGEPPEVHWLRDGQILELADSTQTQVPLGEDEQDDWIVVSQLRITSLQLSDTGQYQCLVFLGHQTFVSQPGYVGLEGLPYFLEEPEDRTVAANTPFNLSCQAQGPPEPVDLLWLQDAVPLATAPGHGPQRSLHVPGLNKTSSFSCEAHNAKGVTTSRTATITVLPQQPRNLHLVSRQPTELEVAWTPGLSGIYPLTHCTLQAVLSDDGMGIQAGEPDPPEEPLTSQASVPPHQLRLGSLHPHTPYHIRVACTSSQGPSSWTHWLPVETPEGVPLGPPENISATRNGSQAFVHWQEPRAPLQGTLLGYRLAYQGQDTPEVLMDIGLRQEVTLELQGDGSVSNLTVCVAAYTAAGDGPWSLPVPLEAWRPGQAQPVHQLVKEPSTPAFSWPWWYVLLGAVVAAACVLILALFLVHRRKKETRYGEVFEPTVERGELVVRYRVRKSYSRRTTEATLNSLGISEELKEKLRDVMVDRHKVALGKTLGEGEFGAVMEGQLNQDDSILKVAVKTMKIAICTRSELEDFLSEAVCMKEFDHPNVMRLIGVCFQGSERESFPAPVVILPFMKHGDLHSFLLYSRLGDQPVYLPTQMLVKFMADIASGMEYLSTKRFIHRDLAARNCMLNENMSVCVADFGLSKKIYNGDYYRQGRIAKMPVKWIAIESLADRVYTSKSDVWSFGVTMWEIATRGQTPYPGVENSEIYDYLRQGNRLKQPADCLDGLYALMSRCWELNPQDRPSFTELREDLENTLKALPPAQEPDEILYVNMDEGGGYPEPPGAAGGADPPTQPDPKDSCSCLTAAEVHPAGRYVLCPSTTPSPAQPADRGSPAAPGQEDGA

[2] = target: T1, Tyrosine-protein kinase receptor UFO; assay: Binding affinity to human AXL by active site dependent completion binding assay
[3] = target: ALK tyrosine kinase receptor (Homo sapiens, UniProt Q9UM73); assay: Binding affinity to human ALK
[4] = target: T1, Tyrosine-protein kinase receptor UFO; assay: Binding affinity to human AXL
[5] = target: Tyrosine-protein kinase Blk (Homo sapiens, UniProt P51451); assay: Binding affinity to human BLK
Aurora kinase A = Aurora kinase A (Homo sapiens, UniProt O14965); assay: Inhibition of aurora A (unknown origin)
Aurora kinase B = Aurora kinase B (Homo sapiens, UniProt Q96GD4); assay: Inhibition of aurora B (unknown origin)
[6] = target: Cyclin-dependent kinase 11B (Homo sapiens, UniProt P21127); assay: Binding affinity to human CDK11
[7] = target: Cyclin-dependent kinase 8 (Homo sapiens, UniProt P49336); assay: Binding affinity to human CDK8
[8] = target: Epithelial discoidin domain-containing receptor 1 (Homo sapiens, UniProt Q08345); assay: Inhibition of DDR1 (unknown origin)
[9] = target: Discoidin domain-containing receptor 2 (Homo sapiens, UniProt Q16832); assay: Inhibition of DDR2 (unknown origin)
[10] = target: T2, Receptor-type tyrosine-protein kinase FLT3 (Homo sapiens, UniProt P36888); assay: Binding affinity to human FLT3
[11] = target: T2, Receptor-type tyrosine-protein kinase FLT3; assay: Inhibition of FLT3 (unknown origin)
[12] = target: Homeodomain-interacting protein kinase 4 (Homo sapiens, UniProt Q8NE63); assay: Binding affinity to human HIPk4
[13] = target: Mast/stem cell growth factor receptor Kit (Homo sapiens, UniProt P10721); assay: Binding affinity to human KIT
[14] = target: Serine/threonine-protein kinase 10 (Homo sapiens, UniProt O94804); assay: Binding affinity to human LOK
[15] = target: Dual specificity mitogen-activated protein kinase kinase 5 (Homo sapiens, UniProt Q13163); assay: Binding affinity to human MEK5
[16] = target: Tyrosine-protein kinase Mer (Homo sapiens, UniProt Q12866); assay: Binding affinity to human MER
[17] = target: Hepatocyte growth factor receptor (Homo sapiens, UniProt P08581); assay: Binding affinity to human MET
[18] = target: STE20-like serine/threonine-protein kinase (Homo sapiens, UniProt Q9H2G2); assay: Binding affinity to human SLK
[19] = target: High affinity nerve growth factor receptor (Homo sapiens, UniProt P04629); assay: Binding affinity to human TRKA
[20] = target: BDNF/NT-3 growth factors receptor (Homo sapiens, UniProt Q16620); assay: Binding affinity to human TRKB
[21] = target: Tyrosine-protein kinase receptor TYRO3 (Homo sapiens, UniProt Q06418); assay: Binding affinity to human Tyro3
MDA-MB-231 [22] = assay: Effect on total AXL protein level in human MDA-MB-231 cells at 0.03 to 3 uM after 6 hrs by Western blot method; format: ADME, cell-based; settings: mda-mb-231, 6 h
MDA-MB-231 [23] = assay: Effect on total AKT protein level in human MDA-MB-231 cells at 0.03 to 3 uM after 6 hrs by Western blot method; format: ADME, cell-based; settings: mda-mb-231, 6 h
MDA-MB-231 [24] = assay: Antiproliferative activity against human MDA-MB-231 cells after 24 to 72 hrs by MTT assay; format: functional, cell-based
4T1 [25] = assay: Antiproliferative activity against mouse 4T1 cells over-expressing Axl cells after 24 to 72 hrs by MTT assay; format: functional, cell-based
MDA-MB-231 [26] = assay: Antiproliferative activity against human MDA-MB-231 cells after 24 to 72 hrs by CCK8 assay; format: functional, cell-based
4T1 [27] = assay: Antiproliferative activity against mouse 4T1 cells over-expressing Axl cells after 24 to 72 hrs by CCK8 assay; format: functional, cell-based
[28] = Tmax in Sprague-Dawley rat at 25 mg/kg, po by LC/MS method; format: ADME, organism-based; settings: in vivo
[29] = AUC (0 to infinity) in Sprague-Dawley rat at 2.5 mg/kg, iv by LC/MS method; format: ADME, organism-based; design: dose 2.5 mg/kg, route intravenous, time infinity; settings: in vivo
[30] = Half life in Sprague-Dawley rat at 2.5 mg/kg, iv by LC/MS method; format: ADME, organism-based; settings: in vivo
[31] = Cmax in Sprague-Dawley rat at 2.5 mg/kg, iv by LC/MS method; format: ADME, organism-based; design: dose 2.5 mg/kg, route intravenous; settings: in vivo
[32] = Clearance in Sprague-Dawley rat at 2.5 mg/kg, iv by LC/MS method; format: ADME, organism-based; settings: in vivo
[33] = Ratio of Cmax in Sprague-Dawley rat at 25 mg/kg, po to IC50 for inhibition of human recombinant AXL; format: organism-based; settings: in vivo
MDA-MB-231 [34] = assay: Inhibition of TGFbeta1-induced cell migration in human MDA-MB-231 cells at 0.2 uM incubated for 24 hrs by wound healing assay; format: functional; settings: MDA-MB-231, 24 h
MDA-MB-231 [35] = assay: Inhibition of TGFbeta1-induced cell migration in human MDA-MB-231 cells at 1 uM incubated for 24 hrs by wound healing assay; format: functional; settings: MDA-MB-231, 24 h
MDA-MB-231 [36] = assay: Inhibition of TGFbeta1-induced cell migration in human MDA-MB-231 cells at 5 uM incubated for 24 hrs by wound healing assay; format: functional; settings: MDA-MB-231, 24 h
MDA-MB-231 [37] = assay: Inhibition of TGFbeta1-induced cell invasion in human MDA-MB-231 cells at 0.04 uM incubated for 24 hrs by matrigel-mediated Boyden chamber assay; format: functional; settings: MDA-MB-231, 24 h
MDA-MB-231 [38] = assay: Inhibition of TGFbeta1-induced cell invasion in human MDA-MB-231 cells at 0.2 uM incubated for 24 hrs by matrigel-mediated Boyden chamber assay; format: functional; settings: MDA-MB-231, 24 h
MDA-MB-231 [39] = assay: Inhibition of TGFbeta1-induced cell invasion in human MDA-MB-231 cells at 1 uM incubated for 24 hrs by matrigel-mediated Boyden chamber assay; format: functional; settings: MDA-MB-231, 24 h
MDA-MB-231 [40] = assay: Inhibition of TGFbeta1-induced cell invasion in human MDA-MB-231 cells at 5 uM incubated for 24 hrs by matrigel-mediated Boyden chamber assay; format: functional; settings: MDA-MB-231, 24 h
MDA-MB-231 [41] = assay: Toxicity in human MDA-MB-231 cells at 0.04 to 5 uM incubated for 24 hrs; format: cell-based; settings: mda-mb-231, 24 h
[42] = Oral bioavailability in Sprague-Dawley rat at 25 mg/kg by LC/MS method; format: ADME, organism-based; settings: in vivo

T2 sequence (P36888 whole entry): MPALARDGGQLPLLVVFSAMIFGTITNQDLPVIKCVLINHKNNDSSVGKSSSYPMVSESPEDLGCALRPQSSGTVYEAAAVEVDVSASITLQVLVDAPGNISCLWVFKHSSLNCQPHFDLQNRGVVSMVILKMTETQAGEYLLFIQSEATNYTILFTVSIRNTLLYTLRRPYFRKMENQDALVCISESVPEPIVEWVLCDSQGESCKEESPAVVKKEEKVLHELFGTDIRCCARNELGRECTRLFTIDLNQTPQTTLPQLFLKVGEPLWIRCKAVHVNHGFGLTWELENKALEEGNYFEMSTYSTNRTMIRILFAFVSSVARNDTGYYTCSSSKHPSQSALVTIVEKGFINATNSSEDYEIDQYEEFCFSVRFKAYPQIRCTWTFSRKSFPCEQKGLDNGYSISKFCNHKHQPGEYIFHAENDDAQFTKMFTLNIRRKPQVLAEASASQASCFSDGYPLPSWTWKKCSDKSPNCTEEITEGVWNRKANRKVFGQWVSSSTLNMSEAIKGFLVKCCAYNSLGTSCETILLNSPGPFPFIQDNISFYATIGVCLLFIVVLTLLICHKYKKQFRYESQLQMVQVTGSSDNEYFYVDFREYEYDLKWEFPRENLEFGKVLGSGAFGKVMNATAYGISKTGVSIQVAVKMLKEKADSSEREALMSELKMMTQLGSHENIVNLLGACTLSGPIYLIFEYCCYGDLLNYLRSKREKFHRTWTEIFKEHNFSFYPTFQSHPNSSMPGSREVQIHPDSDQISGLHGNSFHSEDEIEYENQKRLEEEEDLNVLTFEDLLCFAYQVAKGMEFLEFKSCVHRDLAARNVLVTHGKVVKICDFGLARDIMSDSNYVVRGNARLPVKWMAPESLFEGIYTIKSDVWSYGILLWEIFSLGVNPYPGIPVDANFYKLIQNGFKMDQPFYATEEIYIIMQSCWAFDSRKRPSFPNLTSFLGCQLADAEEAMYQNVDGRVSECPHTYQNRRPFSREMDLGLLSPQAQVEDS
Hepatocyte growth factor receptor, sequence (P08581 whole entry): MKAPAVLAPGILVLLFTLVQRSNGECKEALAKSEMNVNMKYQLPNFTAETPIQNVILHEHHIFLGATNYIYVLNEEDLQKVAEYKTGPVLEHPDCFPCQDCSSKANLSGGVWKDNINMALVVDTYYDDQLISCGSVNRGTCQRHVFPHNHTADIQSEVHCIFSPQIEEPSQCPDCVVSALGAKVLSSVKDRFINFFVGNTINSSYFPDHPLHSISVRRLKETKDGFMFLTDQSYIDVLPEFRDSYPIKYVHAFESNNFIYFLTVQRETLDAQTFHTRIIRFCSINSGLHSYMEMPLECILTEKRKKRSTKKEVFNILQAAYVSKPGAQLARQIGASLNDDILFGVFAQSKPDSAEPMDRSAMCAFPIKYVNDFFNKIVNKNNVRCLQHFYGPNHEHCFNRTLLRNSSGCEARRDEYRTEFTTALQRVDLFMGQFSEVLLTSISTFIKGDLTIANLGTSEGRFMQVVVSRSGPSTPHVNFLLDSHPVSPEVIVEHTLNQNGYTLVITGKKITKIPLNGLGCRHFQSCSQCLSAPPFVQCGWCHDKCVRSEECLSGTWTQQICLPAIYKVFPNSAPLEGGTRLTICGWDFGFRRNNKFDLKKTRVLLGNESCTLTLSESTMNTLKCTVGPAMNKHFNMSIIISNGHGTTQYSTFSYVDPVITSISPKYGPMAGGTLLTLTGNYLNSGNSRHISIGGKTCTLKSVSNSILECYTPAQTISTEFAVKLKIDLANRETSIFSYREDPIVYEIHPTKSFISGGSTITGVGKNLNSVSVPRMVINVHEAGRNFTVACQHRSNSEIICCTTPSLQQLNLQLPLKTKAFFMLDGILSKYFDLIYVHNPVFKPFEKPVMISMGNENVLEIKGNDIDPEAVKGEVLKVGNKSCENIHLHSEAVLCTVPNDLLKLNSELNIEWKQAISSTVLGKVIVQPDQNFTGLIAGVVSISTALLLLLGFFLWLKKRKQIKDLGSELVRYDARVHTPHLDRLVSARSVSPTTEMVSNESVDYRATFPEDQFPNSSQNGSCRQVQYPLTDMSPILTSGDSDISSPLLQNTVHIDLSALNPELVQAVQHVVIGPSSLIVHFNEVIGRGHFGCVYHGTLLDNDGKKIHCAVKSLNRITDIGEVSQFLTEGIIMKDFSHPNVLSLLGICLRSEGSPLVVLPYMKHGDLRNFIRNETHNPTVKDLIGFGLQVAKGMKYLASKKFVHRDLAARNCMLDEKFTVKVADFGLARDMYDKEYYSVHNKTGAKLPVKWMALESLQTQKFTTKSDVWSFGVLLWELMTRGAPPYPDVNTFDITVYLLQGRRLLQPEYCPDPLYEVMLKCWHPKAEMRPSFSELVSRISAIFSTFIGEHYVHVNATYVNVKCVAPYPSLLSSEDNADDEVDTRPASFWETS
Tyrosine-protein kinase Blk, sequence (P51451 whole entry): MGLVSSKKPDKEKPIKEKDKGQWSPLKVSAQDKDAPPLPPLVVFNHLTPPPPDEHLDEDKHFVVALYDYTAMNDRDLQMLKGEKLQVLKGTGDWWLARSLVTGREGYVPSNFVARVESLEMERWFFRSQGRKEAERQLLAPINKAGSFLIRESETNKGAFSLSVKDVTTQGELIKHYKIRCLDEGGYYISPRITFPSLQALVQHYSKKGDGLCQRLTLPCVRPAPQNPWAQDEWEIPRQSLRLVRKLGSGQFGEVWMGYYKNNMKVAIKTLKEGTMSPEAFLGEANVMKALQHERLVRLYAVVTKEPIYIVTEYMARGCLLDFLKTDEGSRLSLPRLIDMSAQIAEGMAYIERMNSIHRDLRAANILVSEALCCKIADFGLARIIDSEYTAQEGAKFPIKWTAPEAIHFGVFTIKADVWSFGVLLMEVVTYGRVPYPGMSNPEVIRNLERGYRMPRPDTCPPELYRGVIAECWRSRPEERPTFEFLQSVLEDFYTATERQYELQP
Aurora kinase A, sequence (O14965 whole entry): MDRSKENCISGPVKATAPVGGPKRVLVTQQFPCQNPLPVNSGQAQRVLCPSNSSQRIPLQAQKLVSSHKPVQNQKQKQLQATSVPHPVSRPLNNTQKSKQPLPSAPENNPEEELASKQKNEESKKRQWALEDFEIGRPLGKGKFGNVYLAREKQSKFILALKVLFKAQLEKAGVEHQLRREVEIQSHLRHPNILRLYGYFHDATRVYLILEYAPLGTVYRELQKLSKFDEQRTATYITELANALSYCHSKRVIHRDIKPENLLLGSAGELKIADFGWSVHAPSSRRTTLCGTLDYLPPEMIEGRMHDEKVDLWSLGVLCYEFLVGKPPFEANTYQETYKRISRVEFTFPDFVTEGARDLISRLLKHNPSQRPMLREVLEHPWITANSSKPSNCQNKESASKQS
Cyclin-dependent kinase 8, sequence (P49336 whole entry, the tested form may be a part): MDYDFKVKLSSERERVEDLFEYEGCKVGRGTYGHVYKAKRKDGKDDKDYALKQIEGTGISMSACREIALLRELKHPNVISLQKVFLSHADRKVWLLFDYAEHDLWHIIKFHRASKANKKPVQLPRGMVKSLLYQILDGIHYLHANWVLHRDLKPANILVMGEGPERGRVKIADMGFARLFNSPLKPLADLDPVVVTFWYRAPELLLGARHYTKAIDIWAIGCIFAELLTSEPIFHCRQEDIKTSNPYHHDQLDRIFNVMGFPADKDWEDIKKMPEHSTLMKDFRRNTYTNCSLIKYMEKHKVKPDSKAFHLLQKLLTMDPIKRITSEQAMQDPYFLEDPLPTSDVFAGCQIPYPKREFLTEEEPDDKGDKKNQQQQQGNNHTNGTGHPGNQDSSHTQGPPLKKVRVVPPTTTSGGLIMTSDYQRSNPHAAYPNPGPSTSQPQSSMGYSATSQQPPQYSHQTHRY
Homeodomain-interacting protein kinase 4, sequence (Q8NE63 whole entry): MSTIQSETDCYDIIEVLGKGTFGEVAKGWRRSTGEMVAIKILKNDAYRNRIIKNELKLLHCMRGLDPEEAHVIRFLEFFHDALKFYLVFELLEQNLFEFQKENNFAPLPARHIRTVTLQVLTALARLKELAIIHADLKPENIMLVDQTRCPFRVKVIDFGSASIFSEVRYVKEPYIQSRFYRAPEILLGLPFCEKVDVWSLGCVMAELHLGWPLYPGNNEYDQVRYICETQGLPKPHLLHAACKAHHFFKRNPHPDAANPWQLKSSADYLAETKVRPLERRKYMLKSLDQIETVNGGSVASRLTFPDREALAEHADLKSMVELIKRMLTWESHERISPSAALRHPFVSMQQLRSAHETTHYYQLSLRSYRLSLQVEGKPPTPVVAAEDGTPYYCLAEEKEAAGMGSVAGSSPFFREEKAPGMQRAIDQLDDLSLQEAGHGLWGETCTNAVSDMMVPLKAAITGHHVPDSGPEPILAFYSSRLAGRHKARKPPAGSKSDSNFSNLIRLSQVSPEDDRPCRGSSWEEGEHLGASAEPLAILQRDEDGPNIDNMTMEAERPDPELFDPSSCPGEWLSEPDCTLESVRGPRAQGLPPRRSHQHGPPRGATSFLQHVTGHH
Aurora kinase B, sequence (Q96GD4 whole entry): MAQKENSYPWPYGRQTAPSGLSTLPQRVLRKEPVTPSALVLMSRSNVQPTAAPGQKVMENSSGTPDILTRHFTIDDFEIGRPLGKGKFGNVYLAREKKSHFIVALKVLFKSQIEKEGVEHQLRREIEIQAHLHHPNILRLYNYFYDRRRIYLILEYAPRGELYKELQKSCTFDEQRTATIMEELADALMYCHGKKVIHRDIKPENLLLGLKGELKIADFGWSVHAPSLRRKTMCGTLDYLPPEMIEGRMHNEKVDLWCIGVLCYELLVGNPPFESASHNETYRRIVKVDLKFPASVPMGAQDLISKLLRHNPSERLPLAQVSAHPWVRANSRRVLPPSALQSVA

Compound: Cc1c(C(=O)Nc2ccc(Oc3ncnc4[nH]cc(-c5ccccc5)c34)c(F)c2)c(=O)c2cc(C(F)(F)F)ccc2n1C
- IC50 [1]: 0.15 µM

Compound: C=C(C)c1ccc2c(c1)c(=O)c(C(=O)Nc1ccc(Oc3ncnc4[nH]cc(-c5ccccc5)c34)c(F)c1)c(C)n2C
- IC50 [1]: 0.17 µM

Compound: CCc1ccc2c(c1)c(=O)c(C(=O)Nc1ccc(Oc3ncnc4cc(OC)c(OC)cc34)c(F)c1)c(C)n2C
- Kd [2]: 0.0027 µM
- Kd [3]: > 1 µM
- Kd [4]: 0.0027 µM
- Kd [5]: 0.2 µM
- IC50 (Aurora kinase A): 0.192 µM
- IC50 (Aurora kinase B): 0.114 µM
- Kd [6]: 0.47 µM
- Kd [7]: > 1 µM
- IC50 [8]: 0.0222 µM
- IC50 [9]: 0.35 µM
- Kd [10]: 0.004 µM
- IC50 [11]: < 0.01 µM
- Kd [12]: 0.011 µM
- Kd [13]: 1.67 µM
- Kd [14]: 0.01 µM
- Kd [15]: 0.038 µM
- Kd [16]: 0.0014 µM
- Kd [17]: 0.079 µM
- Kd [18]: 0.24 µM
- Kd [19]: 0.05 µM
- Kd [20]: 0.054 µM
- Kd [21]: 0.058 µM
- Activity (MDA-MB-231 [22]): Non-Toxic
- Activity (MDA-MB-231 [23]): Non-Toxic
- IC50 (MDA-MB-231 [24]): > 10 µM
- IC50 (4T1 [25]): > 10 µM
- IC50 (MDA-MB-231 [26]): > 10 µM
- IC50 (4T1 [27]): > 10 µM
- Tmax [28]: 6 h
- AUC(0-inf) [29]: 42300 ng·h/mL
- half-life [30]: 25.2 h
- Cmax [31]: 1170 ng/mL
- clearance [32]: 1.67 mL/min/kg
- Ratio [33]: > 900
- inhibition at 0.2 µM (MDA-MB-231 [34]): 24.2%
- inhibition at 1 µM (MDA-MB-231 [35]): 50.6%
- inhibition at 5 µM (MDA-MB-231 [36]): 58.4%
- inhibition at 0.04 µM (MDA-MB-231 [37]): 48.5%
- inhibition at 0.2 µM (MDA-MB-231 [38]): 52.1%
- inhibition at 1 µM (MDA-MB-231 [39]): 73.5%
- inhibition at 5 µM (MDA-MB-231 [40]): 78.1%
- Activity (MDA-MB-231 [41]): Non-Toxic

Compound: COC(=O)c1ccc2c(c1)c(=O)c(C(=O)Nc1ccc(Oc3ncnc4[nH]cc(-c5ccccc5)c34)c(F)c1)c(C)n2C
- IC50 [1]: > 10 µM

Compound: Cc1c(C(=O)Nc2ccc(Oc3ncnc4[nH]cc(-c5ccccc5)c34)c(F)c2)c(=O)c2cc(C3=CCCC3)ccc2n1C
- IC50 [1]: 3.32 µM

Compound: CCn1c(C)c(C(=O)Nc2ccc(Oc3ncnc4[nH]cc(-c5ccccc5)c34)c(F)c2)c(=O)c2cc(C)ccc21
- IC50 [1]: 0.15 µM

Compound: Cc1ccc2c(c1)c(=O)c(C(=O)Nc1ccc(Oc3ncnc4[nH]cc(-c5ccccc5)c34)c(F)c1)c(C)n2C
- IC50 [1]: 0.1 µM

Compound: CCc1ccc2c(c1)c(=O)c(C(=O)Nc1ccc(Oc3ccnc(C(N)=O)c3Cl)c(F)c1)c(C)n2C
- IC50 [1]: > 10 µM

The next lines start with results.

- IC50 [1]: 0.15 µM
Compound: Cc1ccc2c(c1)c(=O)c(C(=O)Nc1ccc(Oc3ncnc4[nH]cc(-c5ccccc5)c34)c(F)c1)cn2C

- IC50 [1]: 0.03 µM
Compound: CCc1ccc2c(c1)c(=O)c(C(=O)Nc1ccc(Oc3ncnc4[nH]cc(-c5ccccc5)c34)cc1F)c(C)n2C

- IC50 [1]: 0.23 µM
Compound: Cc1c(C(=O)Nc2ccc(Oc3ncnc4[nH]cc(-c5ccccc5)c34)c(F)c2)c(=O)c2cc(C3CC3)ccc2n1C

- IC50 [1]: 0.2 µM
Compound: Cc1c(C(=O)Nc2ccc(Oc3ncnc4[nH]cc(-c5ccccc5)c34)c(F)c2)c(=O)c2cc(C3CCCC3)ccc2n1C

- IC50 [1]: 0.074 µM
Compound: Cc1c(C(=O)Nc2ccc(Oc3ncnc4[nH]cc(-c5ccccc5)c34)c(F)c2)c(=O)c2cc(OC(F)(F)F)ccc2n1C

- IC50 [1]: 0.03 µM
Compound: CCc1ccc2c(c1)c(=O)c(C(=O)Nc1ccc(Oc3ccnc4[nH]cc(-c5ccccc5)c34)c(F)c1)c(C)n2C

- Kd [2]: 0.0012 µM
- IC50 (MDA-MB-231 [24]): > 10 µM
- IC50 (4T1 [25]): > 10 µM
- IC50 (MDA-MB-231 [26]): > 10 µM
- IC50 (4T1 [27]): > 10 µM
- Tmax [28]: 0.67 h
- bioavailability [42]: 1.2%
Compound: CCc1ccc2c(c1)c(=O)c(C(=O)Nc1ccc(Oc3ncnc4[nH]cc(-c5ccccc5)c34)c(F)c1)c(C)n2C
- Activity (MDA-MB-231 [22]): Non-Toxic
- Activity (MDA-MB-231 [23]): Non-Toxic

- IC50 [1]: > 10 µM
Compound: CCc1ccc2c(c1)c(=O)c(C(=O)Nc1ccc(Oc3ccnc(Cl)c3)c(F)c1)c(C)n2C

- IC50 [1]: 0.192 µM
Compound: CCc1ccc2c(c1)c(=O)c(C(=O)Nc1ccc(Oc3ccnc4occ(-c5ccccc5)c34)c(F)c1)c(C)n2C
